Measured values reported in US8952128B2, “Somatostatin-dopamine chimeric analogs” (priority 2012, dated 2015).
Bridge positions count the residues as written; N and C are the ends. Square brackets hold non-standard residues; d marks the D form. Peptide text beside a SMILES is read from it. * marks the point of attachment. X2 = CN1C[C@H](CSCC(=O)*)C[C@@H]2c3cccc4[nH]cc(c34)C[C@H]21; 4Pal = N[C@@H](Cc1ccncc1)C(=O)O; dDab = NCC[C@@H](N)C(=O)O

What was measured:
hSSTR2 = hSSTR2 (Homo sapiens (Human), UniProt P30874); assay: Intracellular calcium mobilization assay (FLIPR Calcium 4), hSSTR2; type: cell-based; conditions: for Emax: read-out: hSSTR2 % Emax ± SEM;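 as to all read-outs here: agonist activity read as intracellular calcium rise in cells expressing human SSTR2, loaded with a calcium-sensitive dye for 60 min at 37 °C, measured by FLIPR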
Sequence of hSSTR2 (P30874 whole entry): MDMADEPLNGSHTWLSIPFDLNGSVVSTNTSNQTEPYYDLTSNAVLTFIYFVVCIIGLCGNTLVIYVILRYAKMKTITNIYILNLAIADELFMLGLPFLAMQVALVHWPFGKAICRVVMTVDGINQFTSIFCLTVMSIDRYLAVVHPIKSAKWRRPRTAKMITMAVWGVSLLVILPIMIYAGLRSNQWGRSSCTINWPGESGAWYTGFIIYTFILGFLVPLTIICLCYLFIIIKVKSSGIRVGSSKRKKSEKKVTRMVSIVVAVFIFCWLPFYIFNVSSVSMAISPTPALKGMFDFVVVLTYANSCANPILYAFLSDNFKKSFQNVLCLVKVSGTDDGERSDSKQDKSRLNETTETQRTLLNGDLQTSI
Experimental: (§5) The ability of select compounds according to the present invention to activate hSSTR2 and hDRD2 was determined by the intracellular calcium mobilization assay using FLIPR Calcium 4 assay kit (Molecular Devices).
(§6) Cells expressing hSSTR2 or hDRD2 were plated in 384-well microplates in tissue culture media and incubated for 16-24 hours at 37° C. in a humidified atmosphere with 5% CO2. Medium was replaced by loading buffer containing Hank's buffered saline, 20 mM HEPES, 2.5 mM probenecid and Calcium 4 dye, and the plates were incubated at 37° C. for 60 minutes.

hDRD2 = hDRD2 (Homo sapiens (Human), UniProt P14416); assay: cell-based; conditions: for Emax: read-out: hDRD2 % Emax ± SEM
Experimental: as §5, §6

hSSTR3 = hSSTR3 (Homo sapiens (Human), UniProt P32745); assay: Somatostatin receptor radioligand binding assay, hSSTR3; conditions: CHO-K1 membranes, [125I-Tyr11]-SRIF-14; read-out: hSSTR3 Ki (nM) ± SEM
Sequence of hSSTR3 (P32745 whole entry): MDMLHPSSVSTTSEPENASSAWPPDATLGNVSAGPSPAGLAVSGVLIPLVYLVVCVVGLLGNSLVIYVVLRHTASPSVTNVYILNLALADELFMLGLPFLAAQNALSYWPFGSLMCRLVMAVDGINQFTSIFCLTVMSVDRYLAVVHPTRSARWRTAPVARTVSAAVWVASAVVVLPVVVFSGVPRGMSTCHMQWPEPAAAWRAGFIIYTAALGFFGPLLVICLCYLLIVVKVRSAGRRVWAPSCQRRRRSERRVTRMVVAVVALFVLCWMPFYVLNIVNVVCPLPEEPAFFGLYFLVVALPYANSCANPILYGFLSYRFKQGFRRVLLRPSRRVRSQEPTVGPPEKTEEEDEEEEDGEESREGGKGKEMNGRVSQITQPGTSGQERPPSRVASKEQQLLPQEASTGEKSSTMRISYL
Experimental: (§1) The affinities of a test compound for the human somatostatin receptors were determined by radioligand binding assays in CHO-K1 cells stably transfected with each of the human somatostatin receptor subtypes, hSSTR1-5. […] Clonal cell lines stably expressing each of the somatostatin receptors were obtained by transfection into CHO-K1 cells (ATCC) and subsequently selected with culture media containing 0.8 mg/mL of G418 (Life Technologies).
(§2) Membranes for in vitro receptor binding assays were obtained by the following procedures. CHO-K1 cells expressing one of the somatostatin receptors were homogenized in ice-cold buffer with 10 mM Tris-HCl, 5 mM EDTA, 3 mM EGTA, 1 mM phenylmethylsuphonyl fluoride, pH 7.6, using Polytron PT10-35GT (Kinematica) at 18,000 rpm for 30 seconds and centrifuged at 500×g for 10 minutes. The supernatant containing the plasma membranes was centrifuged at 100,000×g for 30 minutes and the pellet was resuspended in buffer containing 20 mM glycine-glycine, 1 mM MgCl2, 250 mM sucrose, pH 7.2, for storage at −80° C.
(§3) For the hSSTR3 and 4 assays, membranes and various concentrations of test compounds were incubated in 96-well plates for 60 minutes at 25° C. with 0.05 nM [^125I-Tyr^11]-SRIF-14 (PerkinElmer Life Science) in 50 mM HEPES, 0.2% BSA, 5 mM MgCl2, 200 KIU/mL trasylol, 0.02 mg/mL bacitracin, and 0.02 mg/mL phenylmethylsuphonyl fluoride, pH 7.5.
(§4) The incubations were terminated by rapid filtration through GF/C glass microfiber filter plates (pre-wet with 0.3% polyethyleneimine and 0.1% BSA) using a 96-well cell harvester (Brandel). Plates were washed six times with 1 mL/well aliquots of ice-cold buffer containing 50 mM Tris buffer, pH 7.7. Specific binding was defined as the total radioligand bound minus the bound in the presence of 1000 nM SRIF-14.

hSSTR4 = hSSTR4 (Homo sapiens (Human), UniProt P31391); assay: Somatostatin receptor radioligand binding assay, hSSTR4; conditions: CHO-K1 membranes, [125I-Tyr11]-SRIF-14; read-out: hSSTR4 Ki (nM) ± SEM
Sequence of hSSTR4 (P31391 whole entry): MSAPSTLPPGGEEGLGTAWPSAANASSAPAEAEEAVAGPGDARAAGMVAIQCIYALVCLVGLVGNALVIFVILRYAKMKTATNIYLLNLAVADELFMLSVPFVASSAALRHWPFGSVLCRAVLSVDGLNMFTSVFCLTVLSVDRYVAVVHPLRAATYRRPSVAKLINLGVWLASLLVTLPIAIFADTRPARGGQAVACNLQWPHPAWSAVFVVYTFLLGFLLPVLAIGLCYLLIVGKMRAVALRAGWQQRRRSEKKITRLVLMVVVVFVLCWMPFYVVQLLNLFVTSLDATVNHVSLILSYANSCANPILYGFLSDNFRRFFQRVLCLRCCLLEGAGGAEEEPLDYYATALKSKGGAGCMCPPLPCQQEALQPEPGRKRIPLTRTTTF
Experimental: as §1, §2, §3, §4

SMILES | EC50 (hSSTR2) [nM] | Emax (hSSTR2) [%] | EC50 (hDRD2) [nM] | Emax (hDRD2) [%] | also measured
C[C@@H](O)[C@@H]1NC(=O)[C@H](CCCCN)NC(=O)[C@@H](Cc2c[nH]c3ccccc23)NC(=O)[C@H](Cc2ccncc2)NC(=O)[C@H](Cc2ccccc2)NC(=O)[C@H](CCCNC(=N)N)NC(=O)[C@H](NC[C@H](CCCCNC(=O)CSC[C@@H]2C[C@@H]3c4cccc5[nH]cc(c45)C[C@H]3N(C)C2)NC(=O)CSC[C@@H]2C[C@@H]3c4cccc5[nH]cc(c45)C[C@H]3N(C)C2)CCCCNC(=O)[C@H](Cc2ccc(O)cc2)NC1=O [Compound 8, Dop1-Lys(Dop1)-psi(CH2NH)-cyclo(DLys-Arg-Phe-4Pal-DTrp-Lys-Thr-Tyr)] | 29.8 ± 10.5 | 98.8 ± 2.6 | 18 ± 4.1 |  | improvement in % Emax over Reference Compound C (hSSTR2; calcium mobilization): statistically significant improvement
C[C@@H](O)[C@@H]1NC(=O)[C@H](CCCCN)NC(=O)[C@@H](Cc2c[nH]c3ccccc23)NC(=O)[C@H](Cc2ccncc2)NC(=O)[C@H](Cc2ccccc2)NC(=O)[C@H](CCCNC(=N)N)NC(=O)[C@H](NC[C@H](CCCCNC(=O)CSC[C@@H]2C[C@@H]3c4cccc5[nH]cc(c45)C[C@H]3N(C)C2)NC(=O)CSC[C@@H]2C[C@@H]3c4cccc5[nH]cc(c45)C[C@H]3N(C)C2)CCCCNC(=O)[C@H](Cc2ccccc2)NC1=O [Compound 9, Dop1-Lys(Dop1)-psi(CH2NH)-cyclo(DLys-Arg-Phe-4Pal-DTrp-Lys-Thr-Phe)] | 22.2 ± 5.5 | 98.4 ± 1.6 | 15.5 ± 3.7 |  | improvement in % Emax over Reference Compound C (hSSTR2; calcium mobilization): statistically significant improvement
C[C@@H](O)[C@@H]1NC(=O)[C@H](CCCCN)NC(=O)[C@@H](Cc2c[nH]c3ccccc23)NC(=O)[C@H](Cc2ccccc2)NC(=O)[C@H](Cc2ccccc2)NC(=O)[C@H](CCCNC(=N)N)NC(=O)[C@H](NCCS(=O)(=O)C[C@@H]2C[C@@H]3c4cccc5[nH]cc(c45)C[C@H]3N(C)C2)CCCCNC(=O)[C@H](Cc2ccc(F)cc2)NC1=O [Compound 10, Dop1(SO2)-psi(CH2NH)-cyclo(DLys-Arg-Phe-Phe-DTrp-Lys-Thr-4FPhe)] |  | 84.8 ± 13 |  |  | Ki (hSSTR3): 27.9 nM; Ki (hSSTR4): 20.6 nM
C[C@@H](O)[C@@H]1NC(=O)[C@H](CCCCN)NC(=O)[C@@H](Cc2c[nH]c3ccccc23)NC(=O)[C@H](Cc2ccncc2)NC(=O)[C@H](Cc2ccccc2)NC(=O)[C@H](CCCNC(=N)N)NC(=O)[C@H](NCC[S@+]([O-])C[C@@H]2C[C@@H]3c4cccc5[nH]cc(c45)C[C@H]3N(C)C2)CCCCNC(=O)[C@H](Cc2ccc(O)cc2)NC1=O [Compound 11, Dop1[(R)SO]-psi(CH2NH)-cyclo(DLys-Arg-Phe-4Pal-DTrp-Lys-Thr-Tyr)] |  | 92.3 ± 4.6 |  |  | Ki (hSSTR3): 30.9 ± 11.7 nM; Ki (hSSTR4): 2.1 ± 0.4 nM
C[C@@H](O)[C@@H]1NC(=O)[C@H](CCCCN)NC(=O)[C@@H](Cc2c[nH]c3ccccc23)NC(=O)[C@H](Cc2ccncc2)NC(=O)[C@H](Cc2ccccc2)NC(=O)[C@H](CCCNC(=N)N)NC(=O)[C@H](NCCS(=O)(=O)C[C@@H]2C[C@@H]3c4cccc5[nH]cc(c45)C[C@H]3N(C)C2)CCCCNC(=O)[C@H](Cc2ccc(O)cc2)NC1=O [Compound 20, Dop1(SO2)-psi(CH2NH)-cyclo(DLys-Arg-Phe-4Pal-DTrp-Lys-Thr-Tyr)] | 0.7 ± 0.1 | 100.2 ± 0.9 | 7.4 ± 1.5 |  | 
C[C@@H](O)[C@@H]1NC(=O)[C@H](CCCCN)NC(=O)[C@@H](Cc2c[nH]c3ccccc23)NC(=O)[C@H](Cc2ccncc2)NC(=O)[C@H](Cc2ccccc2)NC(=O)[C@H](CCCNC(=N)N)NC(=O)[C@H](NC(=O)CSC[C@@H]2C[C@@H]3c4cccc5[nH]cc(c45)C[C@H]3N(C)C2)CCCCNC(=O)[C@H](Cc2ccccc2)NC1=O [Compound 24, Dop1-cyclo(DLys-Arg-Phe-4Pal-DTrp-Lys-Thr-Phe)] (X2-[dK]RF[4Pal][dW]KTF; lactam 1-C) |  |  | 37.3 ± 6.4 |  | improvement in EC50 over Reference Compound A (hSSTR2; Student's t-test, one-tailed, p <0.05): statistically significant improvement; EC50 value lower than that for Reference Compound A (hSSTR2; calcium mobilization, Tables IV and VI): about 9 fold
C[C@@H](O)[C@@H]1NC(=O)[C@H](CCCCN)NC(=O)[C@@H](Cc2c[nH]c3ccccc23)NC(=O)[C@H](Cc2ccccc2)NC(=O)[C@H](Cc2ccccc2)NC(=O)[C@H](CCCNC(=N)N)NC(=O)[C@H](NC(=O)[C@@H](Cc2ccc(O)cc2)NC(=O)CSC[C@@H]2C[C@@H]3c4cccc5[nH]cc(c45)C[C@H]3N(C)C2)CCCCNC(=O)[C@H](Cc2ccccc2)NC1=O [Compound 37, Dop1-DTyr-cyclo(DLys-Arg-Phe-Phe-DTrp-Lys-Thr-Phe)] (X2-[dY][dK]RFF[dW]KTF; lactam 2-C) |  | 85.5 ± 6.7 |  | 93.7 ± 4.3 | 
C[C@@H](O)[C@@H]1NC(=O)[C@H](CCCCN)NC(=O)[C@@H](Cc2c[nH]c3ccccc23)NC(=O)[C@H](Cc2ccccc2)NC(=O)[C@H](Cc2ccccc2)NC(=O)[C@H](CCCNC(=N)N)NC(=O)[C@H](NC[C@@H](Cc2ccc(O)cc2)NC(=O)CSC[C@@H]2C[C@@H]3c4cccc5[nH]cc(c45)C[C@H]3N(C)C2)CCCCNC(=O)[C@H](Cc2ccccc2)NC1=O [Compound 41, Dop1-DTyr-psi(CH2NH)-cyclo(DLys-Arg-Phe-Phe-DTrp-Lys-Thr-Phe)] | 29.6 | 104 | 62.6 |  | 
C[C@@H](O)[C@@H]1NC(=O)[C@H](CCCCN)NC(=O)[C@@H](Cc2c[nH]c3ccccc23)NC(=O)[C@H](Cc2ccccc2)NC(=O)[C@H](Cc2ccccc2)NC(=O)[C@H](CCCNC(=N)N)NC(=O)[C@H](NC[C@H](Cc2ccc(O)cc2)NC(=O)CCN(C[C@@H]2C[C@@H]3c4cccc5[nH]cc(c45)C[C@H]3N(C)C2)S(C)(=O)=O)CCCCNC(=O)[C@H](Cc2ccc(F)cc2)NC1=O [Compound 42, [N-(D-6-methyl-8β-ergolinylmethyl)-N-(methylsulfonyl)]-aminopropionyl-Tyr-psi(CH2NH)-cyclo(DLys-Arg-Phe-Phe-DTrp-Lys-Thr-4FPhe)] |  | 78.6 ± 2.3 |  | 94.5 ± 0.3 | 
C[C@@H](O)[C@@H]1NC(=O)[C@H](CCCCN)NC(=O)[C@@H](Cc2c[nH]c3ccccc23)NC(=O)[C@H](Cc2ccccc2)NC(=O)[C@H](Cc2ccccc2)NC(=O)[C@H](CCCNC(=N)N)NC(=O)[C@H](NC[C@H](CCCCNC(=O)CSC[C@@H]2C[C@@H]3c4cccc5[nH]cc(c45)C[C@H]3N(C)C2)NC(=O)CSC[C@@H]2C[C@@H]3c4cccc5[nH]cc(c45)C[C@H]3N(C)C2)CCCCNC(=O)[C@H](Cc2ccc(F)cc2)NC1=O [Compound 47, Dop1-Lys(Dop1)-psi(CH2NH)-cyclo(DLys-Arg-Phe-Phe-DTrp-Lys-Thr-4FPhe)] | 77.5 ± 19 | 96.2 ± 5.9 | 46.6 ± 12.2 |  | improvement in % Emax over Reference Compound C (hSSTR2; calcium mobilization): statistically significant improvement
C[C@@H](O)[C@@H]1NC(=O)[C@H](CCCCN)NC(=O)[C@@H](Cc2c[nH]c3ccccc23)NC(=O)[C@H](Cc2ccccc2)NC(=O)[C@H](Cc2ccccc2)NC(=O)[C@H](CCCNC(=N)N)NC(=O)[C@H](NC(=O)CSC[C@@H]2C[C@@H]3c4cccc5[nH]cc(c45)C[C@H]3N(C)C2)CCNC(=O)[C@H](Cc2ccccc2)NC1=O [Reference Compound A, Dop1-cyclo(DDab-Arg-Phe-Phe-DTrp-Lys-Thr-Phe), reference compound] (X2-[dDab]RFF[dW]KTF; lactam 1-C) |  | 86.2 ± 7 |  | 59.7 ± 7 | 
C[C@@H](O)[C@@H]1NC(=O)[C@H](CCCCN)NC(=O)[C@@H](Cc2c[nH]c3ccccc23)NC(=O)[C@H](Cc2ccccc2)NC(=O)[C@H](Cc2ccccc2)NC(=O)[C@H](CCCNC(=N)N)NC(=O)[C@H](NC(=O)[C@H](Cc2ccc(O)cc2)NC(=O)CSC[C@@H]2C[C@@H]3c4cccc5[nH]cc(c45)C[C@H]3N(C)C2)CCNC(=O)[C@H](Cc2ccccc2)NC1=O [Reference Compound B, Dop1-Tyr-cyclo(DDab-Arg-Phe-Phe-DTrp-Lys-Thr-Phe), reference compound] (X2-Y[dDab]RFF[dW]KTF; lactam 2-C) |  | 66.7 ± 5.8 |  | 92.8 ± 6.6 | 
C[C@@H](O)[C@@H]1NC(=O)[C@H](CCCCN)NC(=O)[C@@H](Cc2c[nH]c3ccccc23)NC(=O)[C@H](Cc2ccccc2)NC(=O)[C@H](Cc2ccccc2)NC(=O)[C@H](CCCNC(=N)N)NC(=O)[C@H](NC(=O)[C@H](CCCCNC(=O)CSC[C@@H]2C[C@@H]3c4cccc5[nH]cc(c45)C[C@H]3N(C)C2)NC(=O)CSC[C@@H]2C[C@@H]3c4cccc5[nH]cc(c45)C[C@H]3N(C)C2)CCNC(=O)[C@H](Cc2ccccc2)NC1=O [Reference Compound C, Dop1-Lys(Dop1)-cyclo(DDab-Arg-Phe-Phe-DTrp-Lys-Thr-Phe), reference compound] (X2-K(X2)[dDab]RFF[dW]KTF; lactam 2-C) | 68.7 ± 40.8 |  | 112 ± 39.2 |  | 
